Laboratory results published in ChEMBL document CHEMBL1141294, “Renierosides, cerebrosides from a marine sponge Haliclona (Reniera) sp” (2007).

Assays:
Assay type in all cases: functional
Settings in all cases: read-out: ED50 (the source's name)
XF498 = assay: Cytotoxicity against human XF498 cells
SK-OV-3 = assay: Cytotoxicity against human SK-OV-3 cells
A549 = assay: Cytotoxicity against human A549 cells
HCT-15 = assay: Cytotoxicity against human HCT15 cells
SK-MEL-2 = assay: Cytotoxicity against human SK-MEL-2 cells

Measured: EC50

CCCCCC/C=C\CCCCCCCCCCCCCCCCCC[C@@H](O)C(=O)N[C@@H](CO[C@@H]1O[C@H](CO)[C@@H](O)[C@H](O)[C@H]1O)[C@H](O)/C=C/CC/C=C/C=C/CCCCCCC [RENIEROSIDE A1]
> 10 µg/mL: all assays above

CCCCCCC/C=C/C=C/CC/C=C/[C@@H](O)[C@H](CO[C@@H]1O[C@H](CO)[C@@H](O)[C@H](O)[C@H]1O)NC(=O)[C@H](O)CCCCCCCCCCCCCCCCCCCCCC [RENIEROSIDE A5]
> 10 µg/mL: all assays above

CCCCCC/C=C\CCCCCCCCCCCCCCCCCC[C@@H](O)C(=O)N[C@@H](CO[C@@H]1O[C@H](CO)[C@@H](O)[C@H](O)[C@H]1O)[C@H](O)/C=C/CC/C=C(C)/C=C/CCCCCCC [RENIEROSIDE B1]
> 10 µg/mL: all assays above

CCCCCCC/C=C/C=C/CC/C=C/[C@@H](O)[C@H](CO[C@@H]1O[C@H](CO)[C@@H](O)[C@H](O)[C@H]1O)NC(=O)[C@H](O)CCCCCCCCCCCCCCCCCCCC [RENIEROSIDE A4]
> 10 µg/mL: all assays above

CCCCCCC/C=C/C(C)=C/CC/C=C/[C@@H](O)[C@H](CO[C@@H]1O[C@H](CO)[C@@H](O)[C@H](O)[C@H]1O)NC(=O)[C@H](O)CCCCCCCCCCCCCC/C=C\CCCCCCCC [RENIEROSIDE B2]
> 10 µg/mL: all assays above

CCCCCCC/C=C/C=C/CC/C=C/[C@@H](O)[C@H](CO[C@@H]1O[C@H](CO)[C@@H](O)[C@H](O)[C@H]1O)NC(=O)[C@H](O)CCCCCCCCCCCCCC/C=C\CCCCCCCC [RENIEROSIDE A2]
> 10 µg/mL: all assays above

CCCCCCC/C=C/C=C/CC/C=C/[C@@H](O)[C@H](CO[C@@H]1O[C@H](CO)[C@@H](O)[C@H](O)[C@H]1O)NC(=O)[C@H](O)CCCCCCCCCCCCC/C=C\CCCCCCCC [RENIEROSIDE A3]
> 10 µg/mL: all assays above

CCCCCC/C=C\CCCCCCCCCCCCCCCCC[C@@H](O)C(=O)N[C@@H](CO[C@@H]1O[C@H](CO)[C@@H](O)[C@H](O)[C@H]1O)[C@H](O)/C=C/CC/C=C(C)/C=C/CCCCCCC [RENIEROSIDE B3]
> 10 µg/mL: all assays above
